Measurements from ChEMBL document CHEMBL1130292, “Novel cyanoguanidines with potent oral antitumour activity” (Bioorg Med Chem Lett, 1997).

How the values were obtained:
MCF7 = assay: Evaluated in vitro for antiproliferative activity against MCF-7 cell lines model of hormone dependent breast cancer; type: functional, cell-based; settings: Homo sapiens
NCI-H460 = assay: Evaluated in vitro for antiproliferative activity against […] cell lines derived from large cell carcinoma of the lung; type: functional, cell-based; settings: Homo sapiens
[1] = tested on: NYH small cell lung cancer (Homo sapiens); assay: Evaluated in vitro for antiproliferative activity against NYH cell lines derived from small cell lung cancer
Mus musculus [2] = assay: Percent median treated tumor size to that of control tumor size in NYH treatment model in mice (in vivo) after peroral administration of compound (20 mg/kg, number of tumors 8); type: functional
Mus musculus [3] = assay: Percent median treated tumor size to that of control tumor size in NYH treatment model in mice (in vivo) after peroral administration of compound (20 mg/kg, number of tumors 11); type: functional
Mus musculus [4] = assay: Percent median treated tumor size to that of control tumor size in NYH treatment model in mice (in vivo) after peroral administration of compound (20 mg/kg, number of tumors 9); type: functional
[5] = tested on: Lewis lung carcinoma cell line; assay: In vitro antiproliferative activity against Lewis cell lines; type: functional, cell-based; settings: Mus musculus
WALKER = assay: In vitro antiproliferative activity against Walker cell line; type: functional, cell-based; settings: Rattus norvegicus
Mus musculus [6] = assay: Percent median treated tumor size to that of control tumor size in NYH treatment model in mice (in vivo) after peroral administration of compound (25 mg/kg, number of tumors 9); type: functional
B16 = assay: In vitro antiproliferative activity against B16 cell lines; type: functional, cell-based; settings: Mus musculus
YOSHIDA = assay: In vitro antiproliferative activity against Yoshida cell lines; type: functional, cell-based; settings: Rattus norvegicus
[7] = In vitro antiproliferative activity against Fibroblasts; type: functional
Mus musculus [8] = assay: Percent median treated tumor size to that of control tumor size in NYH treatment model in mice (in vivo) after peroral administration of compound (50 mg/kg, number of tumors 13); type: functional
Mus musculus [9] = assay: Percent median treated tumor size to that of control tumor size in NYH treatment model in mice (in vivo) after peroral administration of compound (20 mg/kg, number of tumors 20); type: functional
Mus musculus [10] = assay: Percent median treated tumor size to that of control tumor size in NYH treatment model in mice (in vivo) after intraperitoneal administration of compound (0.5 mg/kg, number of tumors 8); type: functional
Mus musculus [11] = assay: Percent median treated tumor size to that of control tumor size in NYH treatment model in mice (in vivo) after subcutaneous administration of compound (10 mg/kg, number of tumors 7); type: functional

Compound | IC50 (MCF7) [µM] | IC50 (NCI-H460) [µM] | IC50 [1] [µM] | also measured
N#CN/C(=N\CCCCCCOc1ccccc1Cl)Nc1ccncc1 | 0.0019 | 0.0058 | 0.0006 | 
N#CN/C(=N\CCCCCCCOc1ccccc1)Nc1cccnc1 | 0.042 | 0.36 | 0.022 | 
COc1ccccc1OCCCCCC/N=C(\NC#N)Nc1ccncc1 | 0.0011 | 0.021 | 0.0005 | 
COc1ccc(OCCCCCC/N=C(\NC#N)Nc2ccncc2)cc1 | 0.037 | 0.037 | 0.012 | 
N#CN/C(=N\CCCCCCCCOc1ccc(Cl)cc1)Nc1ccncc1 | 0.054 | 0.48 | 0.015 | 
N#CN/C(=N\CCCCCCOc1ccc([N+](=O)[O-])cc1)Nc1ccncc1 | 0.12 | 0.59 | 0.052 | 
N#CN/C(=N\CCCCCCOc1ccccc1)Nc1ccncc1 | 0.03 | 0.052 | 0.0049 | 
COc1cccc(OCCCCCC/N=C(\NC#N)Nc2ccncc2)c1 | 0.0038 | 0.038 | 0.0019 | T/C (Mus musculus [2]): 42%
N#CN/C(=N\CCCCCCOc1ccccc1[N+](=O)[O-])Nc1ccncc1 | 0.0063 | 0.041 | 0.0006 | 
N#CN/C(=N\CCCCCCCOc1ccc(Cl)cc1)Nc1ccncc1 | 0.056 | 0.069 | 0.0062 | 
N#CN/C(=N\CCCCCCCOc1ccccc1)Nc1ccncc1 | 0.014 | 0.027 | 0.0006 | T/C (Mus musculus [3]): 35%
N#CN/C(=N\CCCCCCOc1cccc(Cl)c1)Nc1ccncc1 | 0.0088 | 0.059 | 0.0061 | 
N#CN/C(=N\CCCCCCOc1ccccc1)Nc1cccnc1 | 0.23 | 0.53 | 0.052 | 
N#CN/C(=N\CCCCCCOc1cccc([N+](=O)[O-])c1)Nc1ccncc1 | 0.031 | 0.074 | 0.0057 | 
N#CN/C(=N\CCCCCOc1ccc(Cl)cc1)Nc1ccncc1 | 0.053 | 0.59 | 0.0063 | 
N#CN/C(=N\CCCCCCOc1cc(Cl)c(Cl)cc1Cl)Nc1ccncc1 | 0.0044 | 0.013 | 0.0021 | T/C (Mus musculus [4]): 0%
N#CN=C(NCCCCCCOc1ccc(Cl)cc1)Nc1ccncc1 [CHS-828] | 0.031 | 0.05 | 0.0027 | IC50 [5]: 0.56 µM; IC50 (WALKER): 0.5 µM; T/C (Mus musculus [6]): 0%; IC50 (B16): 0.28 µM; IC50 (YOSHIDA): 0.14 µM; IC50 [7]: 0.04 µM; T/C (Mus musculus [8]): 0%; T/C (Mus musculus [9]): 0%
COc1cccc2c1C(=O)c1c(O)c3c(c(O)c1C2=O)C[C@@](O)(C(C)=O)C[C@@H]3O[C@H]1C[C@H](N)[C@H](O)[C@H](C)O1 [DAUNORUBICIN] | 0.039 | 0.0035 | 0.0039 | T/C (Mus musculus [10]): 105%; IC50 [5]: 0.061 µM; IC50 (WALKER): 0.047 µM; IC50 (B16): 0.0092 µM; IC50 (YOSHIDA): 0.0074 µM
CC(=O)O[C@H]1C(=O)[C@@]2(C)[C@H]([C@H](OC(=O)c3ccccc3)[C@]3(O)C[C@H](OC(=O)[C@H](O)[C@@H](NC(=O)c4ccccc4)c4ccccc4)C(C)=C1C3(C)C)[C@]1(OC(C)=O)CO[C@@H]1C[C@@H]2O [PACLITAXEL] |  |  | 0.0043 | T/C (Mus musculus [11]): 48%; IC50 [5]: 0.061 µM; IC50 (WALKER): 0.15 µM; IC50 (B16): 0.008 µM; IC50 (YOSHIDA): 0.0079 µM; IC50 [7]: 0.0009 µM
